According to patent publication US6395708B1, “Method for preventing diarrhea” (Novartis, A.G., priority 1999, dated 2002):

Legend:
[1] = Octreotide prophylaxis of irinotecan-induced diarrhea in patients receiving irinotecan; assay type: in vivo; conditions: octreotide prophylactic treatment before or concurrent with irinotecan; octreotide acetate long-acting release formulation 10, 20 or 30 mg
Method: In the prophylaxis of diarrhea according to the invention, octreotide may be administered simultaneously with irinotecan, or the compounds may be administered sequentially, in any desired order. Preferably octreotide is administered some days before the first irinotecan administration and subsequent octreotide administrations are before or simultaneous with irinotecan administration, the time of administration (dosing intervals) of octreotide depending on the preferred irinotecan-scheduled regimen. In a preferred embodiment of the present invention, octreotide acetate long-acting release formulation is administered 10-14 days prior to the first irinotecan dose. For example, when irinotecan is administered in a planned 6-week cycle, wherein irinotecan is given intravenously as a single-agent or in combination with other antineoplastic agents such as, e.g., cisplatin, 5-fluoruracil or others, over 30-90 minutes once weekly for 4 weeks followed by a 2-week rest period, octreotide acetate long-acting release formulation may be administered prior to the first irinotecan dose and again on Day 15 or Day 22 of this 6-week cycle. The octreotide acetate long-acting release formulation dosage is 10 mg, 20 mg or 30 mg at the time of each octreotide administration. […]

[2] = cited from earlier work
[3] = patients who experienced this side-effect during a previous course of chemotherapy; cited from earlier work
[4] = prophylaxis against chemotherapy-induced diarrhea; cited from earlier work
[5] = intensive, immediate application once diarrhea has started; cited from earlier work

Compound | severity and duration of diarrhea [1] | treatment of 5-fluorouracil-induced diarrhea ([2]; Meropol et al. 1998) | efficacy in therapy of 5-fluorouracil-induced diarrhea, compared with loperamide ([2]; randomized trial comparing octreotide with loperamide) | prevention of diarrhea associated with cisplatin [3] | prevention of diarrhea associated with 5-fluorouracil plus leucovorin [4] | frequency of diarrhea [5] | severity of diarrhea [5]
C[C@@H](O)[C@@H]1NC(=O)[C@H](CCCCN)NC(=O)[C@@H](Cc2c[nH]c3ccccc23)NC(=O)[C@H](Cc2ccccc2)NC(=O)[C@@H](NC(=O)[C@H](N)Cc2ccccc2)CSSC[C@@H](C(=O)N[C@H](CO)[C@@H](C)O)NC1=O (relative stereo) [octreotide, L-cysteinamide,D-phenylalanyl-L-cysteinyl-L-phenylalanyl-D-tryptophyl-L-lysyl-L-threonyl-N-[2-hydro-1-hydroxymethyl) propyl]-, cyclic (2→7)-disulfide; [R-(R*,R*)]] | avoids or remarkably limits the severity and duration of diarrhea in many cases | successful in the treatment of 5-fluorouracil-induced diarrhea | more effective than loperamide | active in preventing diarrhea | does not prevent diarrhea |  | 
CN(C)C(=O)C(CCN1CCC(O)(c2ccc(Cl)cc2)CC1)(c1ccccc1)c1ccccc1 [loperamide] |  |  |  |  |  | had not reduced the frequency of diarrhea | often successful in reducing the severity of diarrhea
